Assays:
[1] = biological target: T1, TAK1 (Homo sapiens, UniProt O43318); settings: cited from earlier work
T1 sequence (O43318 1-606): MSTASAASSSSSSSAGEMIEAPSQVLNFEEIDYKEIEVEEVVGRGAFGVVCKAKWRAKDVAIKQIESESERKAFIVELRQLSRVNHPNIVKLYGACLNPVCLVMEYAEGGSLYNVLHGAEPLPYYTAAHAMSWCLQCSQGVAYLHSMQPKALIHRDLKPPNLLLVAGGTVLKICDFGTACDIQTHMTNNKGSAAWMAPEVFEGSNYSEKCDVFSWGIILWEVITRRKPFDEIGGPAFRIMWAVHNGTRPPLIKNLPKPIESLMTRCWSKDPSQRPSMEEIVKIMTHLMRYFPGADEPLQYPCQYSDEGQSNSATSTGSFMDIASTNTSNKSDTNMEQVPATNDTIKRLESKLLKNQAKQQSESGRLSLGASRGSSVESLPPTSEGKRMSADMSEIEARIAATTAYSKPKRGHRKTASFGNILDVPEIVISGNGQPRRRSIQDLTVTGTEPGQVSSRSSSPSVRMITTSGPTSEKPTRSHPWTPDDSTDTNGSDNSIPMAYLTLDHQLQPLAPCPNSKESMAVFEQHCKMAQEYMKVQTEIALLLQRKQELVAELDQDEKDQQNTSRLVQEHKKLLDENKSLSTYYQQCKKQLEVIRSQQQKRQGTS

[2] = tested on: CD19 CAR T cells; test: T cell markers and T cell viability in co-culture of B-NHL and NT/CD19 CAR T cells; type: cell-based
Method: (§1) B-NHL cells were labelled with cell trace violet (Invitrogen) as per the manufacturer's instructions. B-NHL cells and NT or CD19 CAR T cells were cultured with 0:1, 1:1, 1:5 and 1:10 ratios for 16-20h. Post-incubation cells were washed and stained for live dead zombie stain and specific lysis was calculated. For analyzing the expression of T cell markers, B-NHL and NT or CD19 CAR T cells were co-cultured at a ratio of 1:5 for 16-20h and treated with either 10µM of takinib or vehicle.

[3] = tested on: NK1.1+, CD45+, CD11b+ and CD3+ cells; test: Immune cell counts in spleen and BM of B-NHL (A20) bearing mice that received CD19 CAR T cells; type: in vivo; settings: takinib i.p. day 3 to day 9 vs vehicle (Fig. 24, 25)
Method: (§2) Mice were treated with either takinib (Selleckchem, Germany) or vehicle after B-NHL or B-ALL transplantation. For the treatment, stocks of 3 mg/ml and 10 mg/ml of takinib were prepared in DMSO. The stocks were diluted in 0.5% carboxymethylcellulose solution (vehicle) and administered by intraperitoneal injection at a dosage of 0.15 mg/kg (takinib-FACS) and 0.5 mg/kg (survival and behaviour studies) per mouse per day from day 3 to day 9 following either B-NHL or B-ALL transplant, as described previously (13a). An equal volume of corresponding vehicles was administrated to the control groups daily from day 3 until day 9. For survival expriments, 0.5 mg/kg takinib or vehicle per mouse per day was administered intraperitonially from day 3 to day 11 following either B-NHL or B -ALL transplant, as described previously.
(§3) A20 Luc^+ GFP^+ immortalized murine lymphoma cell lines were used to induce B-NHL in mice. BALB/c recipients were sublethally irradiated with 4.5 Gy and transplanted with 1×10^6 A20 Luc^+ GFP^+ intravenously. 7 days later 10×10^6 syngeneic CD19 CAR T cells generated from BALB/c mice were administered. The mice were perfused with Ice cold PBS on day 10 and CNS was analysed. For survival experiments BALB/c recipients were sublethally irradiated with 4.5 Gy and transplanted intravenously with 1×10^5 A20 Luc^+ GFP^+ cells. […]

[4] = tested on: B-NHL (A20); test: B-NHL (A20) lymphoma burden in vivo (bioluminescence, CD19+ cells in bone marrow); settings: CAR19/takinib vs CAR19/vehicle treated mice (Fig. 8a,b)
Method: as §2, §3

[5] = tested on: B-ALL (E2A-PBX1) bearing mice; test: Survival of B-ALL (E2A-PBX1) bearing mice that received CD19 CAR T cells; type: in vivo
Method: as §2
(§4) The E2A-PBX1 cell line (15a) was provided by Dr. Federico Simonetta (Stanford, USA). […] The mice were perfused with ice cold PBS on day 10 and the CNS was analysed. […]
(§5) For sample size in the murine survival experiments a power analysis was performed. A sample size of at least n=8 per group was determined by 80% power to reach a statistical significance of 0.05 in order to detect an effect size of at least 1.06. Differences in animal survival (Kaplan-Meier survival curves) were analyzed by Mantel Cox test. […]

[6] = tested on: B-NHL (A20) bearing mice; test: Survival of B-NHL (A20) bearing mice that received CD19 CAR T cells; type: in vivo
Method: as §2
A20 Luc^+ GFP^+ immortalized murine lymphoma cell lines were used to induce B-NHL in mice. […] The mice were perfused with Ice cold PBS on day 10 and CNS was analysed. […]
as §5

[7] = tested on: B-NHL (A20) cells; test: Viability of B-NHL (A20) cells, 24h; type: cell-based, murine; settings: indicated concentrations of takinib, 24h (Fig. 28a)
[8] = tested on: B-ALL (E2A-PBX1) bearing mice treated with CD19 CAR T cells; test: BBB leakage (FITC-dextran extravasation) in the CNS; type: in vivo
Method: as §2
(§6) The E2A-PBX1 cell line (15a) was provided by Dr. Federico Simonetta (Stanford, USA). C57BI/6 recipients were sublethally irradiated with 5.5 Gy and transplanted with 2×10^5 E2A-PBX1 cells intravenously. […] The mice were perfused with ice cold PBS on day 10 and the CNS was analysed. […]
(§7) Mice received PLX5622 (CSF1R inhibitor) chow or control chow (Research Diets) for 7 days prior to the experiment to achieve microglial depletion. […] The effectiveness of microglia depletion was determined by flow cytometry.

[9] = tested on: B-ALL (E2A-PBX1) bearing mice treated with CD19 CAR T cells; test: Grip strength test; type: in vivo
Method: as §2, §6
Mice received PLX5622 (CSF1R inhibitor) chow or control chow (Research Diets) for 7 days prior to the experiment to achieve microglial depletion. […] The effectiveness of microglia depletion was determined by flow cytometry. […]

[10] = tested on: B-ALL (E2A-PBX1) cells; test: Viability of B-ALL (E2A-PBX1) cells, 24h; type: cell-based, murine; settings: indicated concentrations of takinib, 24h (Fig. 28b)
[11] = tested on: microglia (CD45lo CD11b+); test: Flow cytometry of microglia from the CNS of B-NHL (A20) bearing mice treated with CD19 CAR T cells; type: in vivo
Method: as §2
A20 Luc^+ GFP^+ immortalized murine lymphoma cell lines were used to induce B-NHL in mice. BALB/c recipients were sublethally irradiated with 4.5 Gy and transplanted with 1×10^6 A20 Luc^+ GFP^+ intravenously. 7 days later 10×10^6 syngeneic CD19 CAR T cells generated from BALB/c mice were administered. The mice were perfused with Ice cold PBS on day 10 and CNS was analysed. For survival experiments BALB/c recipients were sublethally irradiated with 4.5 Gy and transplanted intravenously with 1×10^5 A20 Luc^+ GFP^+ cells. Seven days later 5×10^6 syngeneic CD19 CAR T cells from BALB/c mice were administered. Tumor burden was checked by bioluminescence imaging.
(§8) The CNS cells were isolated as described previously (20a) with modifications. Briefly, the mice were anesthetized and were perfused with 1X cold PBS. The CNS was isolated, homogenized and filtered through a 70 µm nylon filter. The homogenate was suspended in 37% isotonic Percoll solution and centrifuged at 800 × g for 30 min without a break in application. The myelin layer was removed from the top of 37% Percoll and the pelleted cells were washed with 1X PBS for further analysis.

[12] = tested on: B-NHL (A20) cells; test: Co-culture of B-NHL (A20) cells with NT or CD19 CAR T cells in vitro; type: cell-based; settings: co-culture E:T 5:1, 10µM takinib or vehicle (Fig. 8c)
Method: A20 Luc^+ GFP^+ cells were stained with cell trace violet as per the manufacturer's instructions (Life Technologies). A20 Luc^+ GFP^+ cells and CD19 CAR T cells were incubated at ratios 1:1, 2:1, 5:1, and 10:1 for 16h at 37° C. Following incubation, cells were harvested and stained with live/dead far red fixable viability stain (Invitrogen).
as §1

[13] = tested on: microglia (CD45lo CD11b+); test: Microglial depletion: flow cytometry of CNS cells of B-ALL bearing mice; type: in vivo
Method: (§9) Mice received PLX5622 (CSF1R inhibitor) chow or control chow (Research Diets) for 7 days prior to the experiment to achieve microglial depletion. C57BI/6 mice were irradiated with 5.5 Gy and transplanted with 2×10^5 E2A-PBX1 cell lines. 10×10^6 CD19 CAR T were injected on day 7 and behaviour studies were performed on day 10. Mice were maintained on PLX5622 chow or control chow throughout the duration of the experiment. The effectiveness of microglia depletion was determined by flow cytometry.
as §8

[14] = tested on: B-ALL (E2A-PBX1); test: Tumor burden and myeloid cells in spleen and BM of B-ALL bearing mice on CSF1R inhibitor diet; type: in vivo
Method: as §9

[15] = tested on: B-ALL (E2A-PBX1) bearing mice treated with CD19 CAR T cells; test: Novel object recognition test; type: in vivo; settings: CAR19 T cells, CSF1R inhibitor diet vs control diet, from one week prior to tumor injection (Fig. 4)
Method: as §2, with “For survival expriments, 0.5 mg/kg takinib or vehicle per mouse per day was administered intraperitonially from day 3 to day 11 following either B-NHL or B -ALL transplant, as described previously.” left out
as §4, §7
Novel object recognition test was performed as described previously with modifications (17a). […] The amount of time spent by the mouse exploring the novel object to the total exploration time is calculated as an index of recognition memory.

[16] = tested on: B-ALL (E2A-PBX1) bearing mice treated with CD19 CAR T cells; test: Elevated plus maze test; type: in vivo; settings: CAR19 T cells, CSF1R inhibitor diet vs control diet, from one week prior to tumor injection (Fig. 4)
Method: as §2, §4, §7
We performed the elevated plus maze test to evaluate the anxiety behaviour in mice as described previously with minor modifications (18a). […] We quantified the time they spent in the open arm in minutes. […]

CCCn1c(NC(=O)c2cccc(C(N)=O)c2)nc2ccc(CN3CCCCC3)cc21 [HS-276]
IC50 [1]: 2.3 nM
Ki [1]: 2.5 nM

CCCn1/c(=N/C(=O)c2cccc(C(N)=O)c2)[nH]c2ccccc21 [Takinib]
markers of cytotoxicity including perforin, CD107a, IFN-y, and TNF ([2]; CD3+ T cells, co-culture 1:5, 10µM takinib or vehicle (Fig. 29a-g)): remained unaffected
viability of CAR19 or NT T cells ([2]; co-culture with B-NHL (A20), 10µM takinib or vehicle (Fig. 29h)): remained unaffected
myeloid cell, T cell or NK cell counts in the periphery [3]: did not reduce
B-NHL (A20) lymphoma burden [4]: decreased
survival ([5]; CAR19/takinib vs CAR19/vehicle, E2a-PBX1 model, 0.5 mg/kg i.p. (Fig. 8f)): increased
survival ([6]; CAR19/takinib vs CAR19/vehicle treated B-NHL bearing mice, 0.5 mg/kg i.p. (Fig. 8d)): survived longer
cell death of B-NHL (A20) cells [7]: dose-dependent cell death
BBB leakage in the cortex ([8]; B-ALL (E2A-PBX1) bearing mice after CAR19 T cell transfer, takinib vs vehicle (Fig. 6m, 26a)): trend towards a lower BBB leakage
grip strength ([9]; CAR19 T cells + takinib vs vehicle (Fig. 6l)): no difference
cell death of B-ALL (E2A-PBX1) cells [10]: dose-dependent cell death
expression of TNF in microglia ([11]; takinib 0.15 mg/kg per mouse per day i.p. day 3 to day 9 vs vehicle (Fig. 6b,c)): reduced expression
p38 phosphorylation in microglia ([11]; takinib 0.15 mg/kg per mouse per day i.p. day 3 to day 9 vs vehicle (Fig. 6f,g)): reduced
expression of GM-CSF in microglia ([11]; takinib 0.15 mg/kg per mouse per day i.p. day 3 to day 9 vs vehicle (Fig. 6d,e)): reduced expression
p70s6K total protein in microglia ([11]; takinib 0.5 mg/kg per mouse per day i.p. day 3 to day 9 vs vehicle (Fig. 6h,i)): reduced
cytotoxicity against B-NHL (A20) in vitro [12]: increased cytotoxicity

C[C@]12C=CC(=O)C=C1CC[C@@H]1[C@@H]2[C@@H](O)C[C@@]2(C)[C@H]1CC[C@]2(O)C(=O)CO [prednisolone]
protective effect of CAR19 T cells against leukemia expansion ([5]; B-ALL (E2a-PBX1) bearing mice, prednisolone day 3 to day 9 (Fig. 8g)): reduced
protective effect of CAR19 T cells against lymphoma growth ([6]; B-NHL (A20) bearing mice, prednisolone day 3 to day 9 (Fig. 8e)): reduced

COCCN1CCN(Cc2ccc(-c3n[nH]c4c3C(=O)c3c(NC(=O)NN5CCOCC5)cccc3-4)cc2)CC1 [RGB-286638 free base]
IC50 [1]: 5 nM

COc1ncc(F)cc1CNc1ccc(Cc2c[nH]c3ncc(C)cc23)c(F)n1 [PLX5622]
BBB leakage ([8]; CAR19 T cell-treated mice, CSF1R inhibitor (PLX5622) diet vs control diet (Fig. 23)): did not reduce
grip strength ([9]; CAR19 T cells, CSF1R inhibitor diet vs control diet (Fig. 4)): no difference
microglia numbers ([13]; PLX5622 diet day -7 to day 10 vs control (Fig. 21b-d)): declined
CD45hi, Ly6G+ and Ly6C+ myeloid cells infiltrating the CNS ([13]; PLX5622 diet vs control diet (Fig. 21e-g)): no significant changes
Ly6C+ and F4/80+ myeloid cells in the spleen ([14]; CSF1R inhibitor diet vs control diet (Fig. 22c,d)): no impact
lymphoma burden in spleen and BM ([14]; CSF1R inhibitor prior to CAR19 T cell transfer vs vehicle-treated mice (Fig. 22a,b)): did not reduce
neurocognitive deficits, novel object recognition test [15]: improved neurocognitive deficits
neurocognitive deficits, elevated plus maze test [16]: improved neurocognitive deficits
